Source: patent US20190070165A1, “N-HYDROXYISOQUINOLINEDIONE INHIBITORS OF HBV REPLICATION” (Saint Louis University, priority 2016, published 2019)
Where two headings read alike, the source gives them in different places.

What was measured:
[1] = target: T1, human RNaseH1 (Homo sapiens, UniProt O60930); assay: Oligonucleotide-directed RNA cleavage assay, human RNaseH1; format: biochemical; conditions: for Human RNaseH1: Table 1, qualitative inhibition
T1 construct: made in house; host or cells: E. coli
T1 sequence (O60930 1-286): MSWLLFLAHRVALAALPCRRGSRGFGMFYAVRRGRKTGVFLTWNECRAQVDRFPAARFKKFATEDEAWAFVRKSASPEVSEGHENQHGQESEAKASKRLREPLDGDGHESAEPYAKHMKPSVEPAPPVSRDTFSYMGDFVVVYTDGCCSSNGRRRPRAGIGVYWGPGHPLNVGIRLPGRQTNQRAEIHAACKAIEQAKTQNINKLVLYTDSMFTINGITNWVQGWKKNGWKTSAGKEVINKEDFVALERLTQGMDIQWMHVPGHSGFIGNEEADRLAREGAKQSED
Text: RNaseH expression and purification.
Oligonucleotide-directed RNA cleavage assay.

[2] = system: HBV replication; assay: HBV replication inhibition assay in HepDES19 cells (strand-preferential q-PCR); format: cell-based, Hepatitis B virus; conditions: for EC50: Hepatitis B virus
Method: HBV replication assay. […] Cells were seeded into 6-well plates and incubated in DMEM/F12, 10% fetal bovine serum (FBS), 1% penicillin/streptomycin (P/S) with 1 μg/mL tetracycline. Tetracycline was withdrawn after 24 hours. The test compound was applied to duplicate wells 48 hours later in medium containing a final DMSO concentration of 1%, and medium containing the compound was refreshed daily for the following two days. Cells were harvested and non-encapsidated nucleic acids were digested with micrococcal nuclease (New England Biolabs). HBV DNA was purified from capsids using QIAamp Cador Pathogen Mini Kit (Qiagen) with proteinase K incubation overnight at 37° C. TaqMan PCR was performed for 40 cycles at an annealing temperature of 60° C.
Thirty-nine HID, HPD, flutimide, and related POH compounds (Structures shown in FIG. 3) were screened for their ability to inhibit HBV replication in HepDES19 cells. […] Inhibition was calculated as the amount of plus-polarity DNA relative to the DMSO treated controls.
Briefly, HepDES19 were seeded in 12-well plates at 2×10^5 cells per well in the absence of tetracycline. Test compound was applied to cells 48 hours after removal of tetracycline. […] HBV DNA was purified from capsids using a QIAamp pathogen minikit with proteinase K digestion extended to overnight at 37° C. TaqMan PCR was performed for 40 cycles with an annealing temperature of 60° C.

[3] = MTT cytotoxicity assay; format: cell-based; conditions: human; Table 2, HepDES19 cells
Method: MTT cytotoxicity assays. 1.0×10^4 HepDES19 cells per well were seeded in 96-well plates and incubated in DMEM with 10% FBS plus 1% P/S, 1% non-essential amino acids, and 1% glutamine. Compounds were diluted in medium to the indicated concentrations plus 1% DMSO and added to cells 24 hours after plating, with each concentration tested in triplicate. Medium containing the compound was refreshed daily for the next two days. Thiazolyl blue tetrazolium bromide (MTT, Sigma-Aldrich) was added to 0.25 mg/mL, the cultures were incubated for 60 minutes, metabolites were solubilized in acidic isopropanol, and absorbance was read at 570 nm.

[4] = MTS cytotoxicity assay (CellTiter 96); conditions: human
Method: (§1) HepDES19 cells were seeded at 1×10^4 cells per well in a 96 well plate in the absence of tetracycline. The test compounds were applied in triplicate to the cells 48 hours later and the cells were incubated for 72 hours. Cell viability was measured using the CellTiter 96 Aqueous Non-Radioactive Cell Proliferation Assay (Promega). [3-(4,5-dimethylthiazol-2-yl)-5-(3-carboxymethoxyphenyl)-2-(4-sulfophenyl)-2H-tetrazolium, inner salt] (MTS) and phenazine methosulfate (PMS) solution at 2 mg/mL MTS and 0.043 mg/mL PMS were added to the medium, the cells were incubated for two hours at 37° C., and absorbance was measured at 490 nm. […] Neutral red was added to the media at a final concentration of 40 μg/mL. Cells were washed with PBS and incubated with neutral red medium for two hours at 37° C. The neutral red medium was removed and the cells were washed with PBS. […] Lactate dehydrogenase (LDH) release was measured using the LDH-cytotoxicity colorimetric assay kit (BioVision). Cells were lysed with 1% Triton-X to provide the high control and DMSO vehicle treatment was the low control. Supernatants were collected and transferred to a fresh 96 well plate, and LDH reaction mixture containing the catalyst and dye solution was added. The reaction was incubated for 15-20 minutes at room temperature in a dark box and absorbance was measured at 490 nm. Percent cytotoxicity was calculated as [(test sample−low control)/([…])]×100.

[5] = system: HepDES19 cells; assay: MTS cytotoxicity assay (CellTiter 96); conditions: CC50 by MTS assay over EC50
Method: as §1

[6] = Neutral red (NR) cytotoxicity assay; format: cell-based; conditions: human, HepDES19 cells, read-out: Toxicity in HepDES19, NR (CC50)
Method: (§2) To further evaluate potential cytotoxicity of these hits, the effect of the compounds was determined for the uptake of neutral red (NR) by the lysosomes and lactate dehydrogenase (LDH) release into the supernatant due to cell membrane permeability. […] Overall, the TI values in Table 3 and FIG. 4 indicate that cytotoxicity was not the cause of antiviral efficacy, although it may have contributed to the apparent efficacy for #84, 85, 90, and 91, which all have TI values below 5.

[7] = Lactate dehydrogenase (LDH) release cytotoxicity assay; format: cell-based; conditions: human, HepDES19 cells, read-out: Toxicity in HepDES19, LDH (CC50)
Method: as §2

[8] = system: HSV-1; assay: HSV-1 replication inhibition assay in Vero cells; format: cell-based, herpes simplex virus 1; conditions: Human alphaherpesvirus 1, 24 h; 5 μM, Vero cells; read-out: HSV-1 suppression (log10 at 5 μM), class symbol
Method: Thirty-seven compounds were counter-screened for efficacy against HSV-1 to evaluate specificity of the inhibitors and to help determine if the efficacy against HBV replication may be due to an unsuspected indirect effect on the cells. Vero cells infected with HSV-1 at an MOI of 0.1 were treated with 5 μM of compound for 24 hours. Inhibition was calculated as log 10 suppression of plaque forming units compared with DMSO vehicle control.
Vero cells were maintained DMEM supplemented with 3% newborn calf serum, 3% bovine growth serum, 2 mM L-glutamine, and P/S. Test compounds were applied to the cells in the presence of 0.05% DMSO. The herpes simplex virus 1 (HSV-1) strain used for screening was a de-identified clinical isolate from the Saint Louis University Hospital passaged once in culture.
Compounds and virus were diluted in phosphate buffered saline (PBS) containing 2% newborn calf serum and 2 mM L-glutamine so that the final concentration of compound was 5 μM. The cells were incubated at 37° C. for 1 hour with the virus containing inoculum, then the inoculum was removed and the wells were washed once in PBS. Compound diluted to 5 μM in supplemented DMEM was added and cells were incubated at 37° C. for an additional 23 hours. The plates were then microscopically inspected for cytopathic effect (CPE) or toxicity and then frozen at −80° C. Virus titers for wells with limited CPE compared to DMSO vehicle-treated controls were then determined by plaque assay on Vero cells. Each experiment was repeated at least once.

[9] = target: T2, HBV RNaseH (Hepatitis B virus genotype D subtype ayw, UniProt P03156); conditions: for Inhibition of HBV RNaseH, Oligonucleotide directed cleavage assay: Table 3, compounds at 100, 60 and 20 μM, compounds 1-91 and 138-140 previously reported (Cai et al., 2014)
T2 sequence (P03156 671-832): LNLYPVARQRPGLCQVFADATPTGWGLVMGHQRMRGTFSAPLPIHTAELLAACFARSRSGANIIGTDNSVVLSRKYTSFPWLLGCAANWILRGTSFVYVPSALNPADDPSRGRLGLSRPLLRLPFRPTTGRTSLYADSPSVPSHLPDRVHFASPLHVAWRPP

[10] = target: T2, HBV RNaseH; assay: Molecular beacon RNaseH assay; conditions: for Inhibition of HBV RNaseH, Molecular Beacon cleavage assay: Table 3, 0 to 500 μM; for inhibition in the molecular beacon assay: 2.1 μg purified HBV RNaseH
[11] = target: T3, HBV polymerase (Hepatitis B virus genotype D subtype ayw, UniProt P03156); assay: Endogenous polymerase reaction (EPR) in isolated HBV capsids; format: biochemical; conditions: ddTTP 5.7 μM; for effect on 32P incorporation in EPR: inhibitors at 4× EC50, #138 and #211 at 30 μM
T3 construct: expressed in transfected cells; host or cells: HepDES19 (HepG2 with a stably transfected HBV genotype D genome)
T3 sequence (P03156 whole entry): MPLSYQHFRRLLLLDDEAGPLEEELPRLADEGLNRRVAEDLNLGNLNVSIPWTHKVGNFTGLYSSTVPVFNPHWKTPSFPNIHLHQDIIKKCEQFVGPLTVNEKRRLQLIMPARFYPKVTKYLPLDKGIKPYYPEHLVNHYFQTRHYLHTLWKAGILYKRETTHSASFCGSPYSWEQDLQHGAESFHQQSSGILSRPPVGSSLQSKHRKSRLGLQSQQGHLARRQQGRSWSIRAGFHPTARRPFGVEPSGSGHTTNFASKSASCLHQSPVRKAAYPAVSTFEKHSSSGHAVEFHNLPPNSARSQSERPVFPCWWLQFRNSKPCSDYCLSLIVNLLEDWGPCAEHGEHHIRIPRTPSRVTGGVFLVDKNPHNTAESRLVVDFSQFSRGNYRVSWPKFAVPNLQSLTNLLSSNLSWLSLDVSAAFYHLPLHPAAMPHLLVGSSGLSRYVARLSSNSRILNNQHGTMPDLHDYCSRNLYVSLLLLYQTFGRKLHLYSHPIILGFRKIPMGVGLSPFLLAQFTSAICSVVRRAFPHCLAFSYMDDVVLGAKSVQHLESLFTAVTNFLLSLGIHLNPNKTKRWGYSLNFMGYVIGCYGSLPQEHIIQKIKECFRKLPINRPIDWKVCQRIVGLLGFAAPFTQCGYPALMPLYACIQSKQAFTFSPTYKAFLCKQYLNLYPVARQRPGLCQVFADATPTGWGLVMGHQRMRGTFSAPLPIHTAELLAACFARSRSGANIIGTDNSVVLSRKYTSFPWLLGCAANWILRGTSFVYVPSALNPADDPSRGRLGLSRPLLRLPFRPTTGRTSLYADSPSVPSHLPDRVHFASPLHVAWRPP
Text: Anti-RNaseH activity is implied from their preferential suppression of the plus-polarity DNA strand (FIG. 4), but strand-preferential inhibition could also result from inhibiting the polymerase also. This is because positive-polarity DNA synthesis can be suppressed both directly by inhibiting the RNaseH enzyme and indirectly by reducing the amount of negative-polarity DNA strand that templates the positive-polarity strand, whereas minus-polarity DNA synthesis can only be suppressed by chain termination. To determine if the efficacy of these compounds was due to inhibition of the HBV polymerase, capsids isolated from HepDES19 cells were tested in the endogenous polymerase reaction (EPR) to measure DNA chain elongation by the HBV polymerase along the HBV nucleic acids within the capsids. Isolated HBV capsids were supplied with dATP, dTTP, dGTP, and [α^32P]dCTP in the presence of inhibitors at 4× their EC50 values; negative control compounds #138 and #211 were tested at 30 μM. 1% DMSO was used as a vehicle control, and ddTTP (5.7 μM) was the positive control polymerase inhibitor. Samples were incubated at 37° C. for 7 hours to permit DNA chain elongation by the encapsidated HBV polymerase. Nucleic acids were purified, resolved on a 0.8% agarose gel and detected by autoradiography. DNAs from HBV capsids treated with the compounds incorporated ^32P similarly to DMSO control (FIG. 5).
HBV cores were harvested from HepDES19 cells grown in the absence of tetracycline for 20 days using polyethylene glycol 8000 precipitation (Guo et al., 2003). Cells were rinsed in PBS and lysed in 1 mL core lysis buffer with 2 μL of protease inhibitor cocktail (Sigma) at room temperature for 10 minutes. Cell lysates were collected and 10 mM CaCl2) was added. The lysate was centrifuged for 5 minutes at 21,000 g, the supernatant was incubated with 150 U of micrococcal nuclease at 37° C. for 60 minutes, and then 27 mM EDTA was added to stop the reaction. 333 μL of 26% PEG8000 was added to precipitate core particles and incubated at 4° C. for 6 hours. The samples were centrifuged at 21,000 g for 20 minutes at 4° C. The supernatant was removed and the pellet was resuspended in 250 μL of 10 mM Tris buffer pH 7.5. Cores were stored at −80° C.
The endogenous polymerase reaction was done using a modified procedure from (Nguyen et al., 2007). […] These nucleic acids were dissolved in tris-EDTA buffer, resolved on a 0.8% agarose gel, transferred to a HyBondN membrane, and detected by autoradiography. Band intensities for each experiment were quantified using Image J and percent inhibition was calculated relative to the DMSO-treated reactions. Statistical significance of variation in band intensities was evaluated using a one-way ANOVA with a Dunnett post hoc analysis, with p=0.05 indicating significance.

[12] = HepDES19, read-out: HBV replication inhibition (EC50, μm)

COc1ccc2c(c1)C(=O)N(O)C(=O)C2C(=O)NCc1ccc(F)cc1 (stereo not shown) [Compound 88]
Human RNaseH1 [1]: +++ (detectable inhibition at 10 μM)
EC50 [2, 12]: 2.5 ± 0.5 µM
CC50 [3]: 40 µM
CC50 at 72 h [4]: 40 ± 6 µM
TI (therapeutic index, CC50(MTS)/EC50) [5]: 16
CC50 at 72 h [6]: 26 ± 2 µM
CC50 at 72 h [7]: 57 ± 6 µM
log reduction at 5 µM [8]: < 1
Inhibition of HBV RNaseH, Oligonucleotide directed cleavage assay [9]: − (No inhibition detected at 100 μM)
Inhibition of HBV RNaseH, Molecular Beacon cleavage assay [10]: − (No inhibition detected at 500 μM)

CCN(CC)C(=O)C1C(=O)N(O)C(=O)c2ccccc21 (stereo not shown) [Compound 83]
IC50 ([1]; Table 1, quantitative values): 3.4 µM
EC50 [2, 12]: 2.3 ± 1.6 µM
CC50 [3]: > 100 µM
log reduction at 5 µM [8]: < 1
HBV RNaseH ([9]; Table 1, qualitative inhibition in biochemical assay): +/−
Inhibition of HBV RNaseH, Oligonucleotide directed cleavage assay [9]: − (No inhibition detected at 100 μM)
inhibition of RNA cleavage by HBV RNaseH ([9]; compounds at 100, 60 and 20 μM): negative
inhibition in the molecular beacon assay [10]: inhibited
Inhibition of HBV RNaseH, Molecular Beacon cleavage assay [10]: + (Dose-dependent inhibition at ≤500 μM)

Cc1cn([C@H]2CC[C@@H](COP(=O)(O)OP(=O)(O)OP(=O)(O)O)O2)c(=O)[nH]c1=O [ddTTP]
reduction of DNA elongation in EPR ([11]; 7 hours, 37° C.): ~90%
effect on 32P incorporation in EPR [11]: strongly inhibited

CC1CC(=O)N(O)C(COc2ccc(Oc3ccc(Cl)cc3)cc2)C1 (stereo not shown) [Compound 211, Rilopirox, reference compound]
HBV replication inhibition / activity ([2]; HepDES19 cells): inactive
HBV replication inhibition (qualitative) ([2]; Table 3, qualitative screen at 20 μM): − (No inhibition detected at 20 μM)
log reduction at 5 µM [8]: < 1
effect on 32P incorporation in EPR [11]: None of the HBV inhibitors or the two negative control compounds (#138 and 211) significantly altered incorporation
Inhibition of HBV RNaseH, Oligonucleotide directed cleavage assay [9]: − (No inhibition detected at 100 μM)
inhibition in the molecular beacon assay [10]: had no effect on the rate of substrate degradation
Inhibition of HBV RNaseH, Molecular Beacon cleavage assay [10]: − (No inhibition detected at 500 μM)

COc1ccc(CNC(=O)C2C(=O)N(O)C(=O)c3ccccc32)cc1 (stereo not shown) [Compound 90]
Human RNaseH1 [1]: ++ (detectable inhibition at 20 μM)
EC50 [2, 12]: 19 ± 0.9 µM
EC50 ([2]; Table 2, HepDES19 cells, read-out: EC50): 18 µM
log reduction at 5 µM [8]: < 1
Inhibition of HBV RNaseH, Oligonucleotide directed cleavage assay [9]: − (No inhibition detected at 100 μM)
Inhibition of HBV RNaseH, Molecular Beacon cleavage assay [10]: − (No inhibition detected at 500 μM)
